Target: T1, PLK1 (Homo sapiens, UniProt P53350)
T1 construct: endogenous in cells; host or cells: HeLa LgBit (Plk1-HiBit KI): HeLa stably expressing LgBit, with a CRISPR/Cas9 knock-in of HiBit at the endogenous PLK1 locus
Assay: Luciferase assay for PLK1 in HeLa LgBit (Plk1-HiBit KI) cell line
Assay type: cell-based
Conditions: 300 nM compound, luminescence after 9 hours
Outline: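 Luminescence, followed in real time after adding compound at 300 nM and Endurazine substrate, is reported relative to DMSO-treated wells. Cells are a HeLa LgBit line with a Plk1-HiBit knock-in, synchronized by 2 mM thymidine for 24 h, released, and cultured 18 h before treatment.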

T1 sequence (P53350 whole entry): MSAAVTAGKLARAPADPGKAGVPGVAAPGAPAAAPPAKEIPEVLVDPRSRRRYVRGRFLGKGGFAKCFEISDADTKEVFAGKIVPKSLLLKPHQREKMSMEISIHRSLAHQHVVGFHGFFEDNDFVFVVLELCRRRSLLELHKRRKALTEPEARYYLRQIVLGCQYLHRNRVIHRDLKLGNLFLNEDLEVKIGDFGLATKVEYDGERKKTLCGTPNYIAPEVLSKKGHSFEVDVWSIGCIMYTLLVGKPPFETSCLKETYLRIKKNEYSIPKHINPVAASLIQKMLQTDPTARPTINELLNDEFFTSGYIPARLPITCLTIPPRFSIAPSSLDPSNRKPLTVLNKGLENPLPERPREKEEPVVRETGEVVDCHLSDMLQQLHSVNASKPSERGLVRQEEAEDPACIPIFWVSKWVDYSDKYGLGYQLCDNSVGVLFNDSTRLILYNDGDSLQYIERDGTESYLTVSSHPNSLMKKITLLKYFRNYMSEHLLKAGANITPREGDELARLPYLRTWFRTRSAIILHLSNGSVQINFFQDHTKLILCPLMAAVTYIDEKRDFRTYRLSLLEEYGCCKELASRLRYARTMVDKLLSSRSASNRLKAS

| Activity: ratio of the luminescense value of each Exemplary Compound treatment group to DMSO treatment group | Compound |
| --- | --- |
| ++ (++<0.6) | COc1cc(C(=O)NC2CCN(C(=O)CCCN3CCN(c4cccc5c4C(=O)N(C4CCC(=O)NC4=O)C5=O)CC3)CC2)ccc1Nc1ncc2c(n1)N(C1CCCC1)CC(F)(F)C(=O)N2C (stereo not drawn) [Compound 64, 4-((9-cyclopentyl-7,7-difluoro-5-methyl-6-oxo-6,7,8,9-tetrahydro-5H-pyrimido[4,5-b][1,4]diazepin-2-yl)amino)-N-(1-(4-(4-(2-(2,6-dioxopiperidin-3-yl)-1,3-dioxoisoindolin-4-yl)piperazin-1-yl)butanoyl)piperidin-4-yl)-3-methoxybenzamide] |
| ++ (++<0.6) | COc1cc(C(=O)NC2CCN(CCOCCOCCOCCOCCOCCOCCNc3cccc4c3C(=O)N(C3CCC(=O)NC3=O)C4=O)CC2)c(F)cc1Nc1ncc2c(n1)N(C1CCCC1)CC(F)(F)C(=O)N2C (stereo not drawn) [Compound 17, 4-((9-cyclopentyl-7,7-difluoro-5-methyl-6-oxo-6,7,8,9-tetrahydro-5H-pyrimido[4,5-b][1,4]diazepin-2-yl)amino)-N-(1-(20-((2-(2,6-dioxopiperidin-3-yl)-1,3-dioxoisoindolin-4-yl)amino)-3,6,9,12,15,18-hexaoxaicosyl)piperidin-4-yl)-2-fluoro-5-methoxybenzamide] |
| ++ (++<0.6) | COc1cc(C(=O)NC2CCN(C(=O)COC3CN(c4cccc5c4C(=O)N(C4CCC(=O)NC4=O)C5=O)C3)CC2)ccc1Nc1ncc2c(n1)N(C1CCCC1)CC(F)(F)C(=O)N2C (stereo not drawn) [Compound 80, 4-((9-cyclopentyl-7,7-difluoro-5-methyl-6-oxo-6,7,8,9-tetrahydro-5H-pyrimido[4,5-b][1,4]diazepin-2-yl)amino)-N-(1-(2-((1-(2-(2,6-dioxopiperidin-3-yl)-1,3-dioxoisoindolin-4-yl)azetidin-3-yl)oxy)acetyl)piperidin-4-yl)-3-methoxybenzamide] |
| + (+<0.7) | COc1cc(C(=O)NC2CCN(C(=O)CCCCCOC3CN(c4cccc5c4C(=O)N(C4CCC(=O)NC4=O)C5=O)C3)CC2)ccc1Nc1ncc2c(n1)N(C1CCCC1)CC(F)(F)C(=O)N2C (stereo not drawn) [Compound 199, 4-((9-cyclopentyl-7,7-difluoro-5-methyl-6-oxo-6,7,8,9-tetrahydro-5H-pyrimido[4,5-b][1,4]diazepin-2-yl)amino)-N-(1-(6-((1-(2-(2,6-dioxopiperidin-3-yl)-1,3-dioxoisoindolin-4-yl)azetidin-3-yl)oxy)hexanoyl)piperidin-4-yl)-3-methoxybenzamide] |
| + (+<0.7) | COc1cc(C(=O)NC2CCN(C(=O)CC[C@@H]3CN(Cc4cccc5c4C(=O)N(C4CCC(=O)NC4=O)C5=O)CCO3)CC2)ccc1Nc1ncc2c(n1)N(C1CCCC1)CC(F)(F)C(=O)N2C (stereo partly drawn) [Compound 173, 4-((9-cyclopentyl-7,7-difluoro-5-methyl-6-oxo-6,7,8,9-tetrahydro-5H-pyrimido[4,5-b][1,4]diazepin-2-yl)amino)-N-(1-(3-((2R)-4-((2-(2,6-dioxopiperidin-3-yl)-1,3-dioxoisoindolin-4-yl)methyl)morpholin-2-yl)propanoyl)piperidin-4-yl)-3-methoxybenzamide] |
| ++ (++<0.6) | COc1cc(C(=O)N2CCC(N3CCN(CCOCCCNc4ccc5c(c4)C(=O)N(C4CCC(=O)NC4=O)C5=O)CC3)CC2)c(F)cc1Nc1ncc2c(n1)N(C1CCCC1)CC(F)(F)C(=O)N2C (stereo not drawn) [Compound 192, 5-((3-(2-(4-(1-(4-((9-cyclopentyl-7,7-difluoro-5-methyl-6-oxo-6,7,8,9-tetrahydro-5H-pyrimido[4,5-b][1,4]diazepin-2-yl)amino)-2-fluoro-5-methoxybenzoyl)piperidin-4-yl)piperazin-1-yl)ethoxy)propyl)amino)-2-(2,6-dioxopiperidin-3-yl)isoindoline-1,3-dione] |
| ++ (++<0.6) | CN1C(=O)C(F)(F)CN(C2CCCC2)c2nc(Nc3ccc(C(=O)NC4CCN(C(=O)CCN5CCN(c6cccc7c6C(=O)N(C6CCC(=O)NC6=O)C7=O)CC5)CC4)cc3C(F)(F)F)ncc21 (stereo not drawn) [Compound 75, 4-((9-cyclopentyl-7,7-difluoro-5-methyl-6-oxo-6,7,8,9-tetrahydro-5H-pyrimido[4,5-b][1,4]diazepin-2-yl)amino)-N-(1-(3-(4-(2-(2,6-dioxopiperidin-3-yl)-1,3-dioxoisoindolin-4-yl)piperazin-1-yl)propanoyl)piperidin-4-yl)-3-(trifluoromethyl)benzamide] |
| + (+<0.7) | COc1cc(C(=O)N[C@H]2CC[C@@H](N(C)CCCNc3cccc4c3C(=O)N(C3CCC(=O)NC3=O)C4=O)CC2)ccc1Nc1ncc2c(n1)N(C1CCCC1)CC(F)(F)C(=O)N2C (stereo partly drawn) [Compound 16, 4-((9-cyclopentyl-7,7-difluoro-5-methyl-6-oxo-6,7,8,9-tetrahydro-5H-pyrimido[4,5-b][1,4]diazepin-2-yl)amino)-N-((1s,4s)-4-((3-((2-(2,6-dioxopiperidin-3-yl)-1,3-dioxoisoindolin-4-yl)amino)propyl)(methyl)amino)cyclohexyl)-3-methoxybenzamide] |
| + (+<0.7) | COc1cc(C(=O)NC2CCN(CCCC3CCCN(c4cccc5c4C(=O)N(C4CCC(=O)NC4=O)C5=O)C3)CC2)ccc1Nc1ncc2c(n1)N(C1CCCC1)CC(F)(F)C(=O)N2C (stereo not drawn) [Compound 57, 4-((9-cyclopentyl-7,7-difluoro-5-methyl-6-oxo-6,7,8,9-tetrahydro-5H-pyrimido[4,5-b][1,4]diazepin-2-yl)amino)-N-(1-(3-(1-(2-(2,6-dioxopiperidin-3-yl)-1,3-dioxoisoindolin-4-yl)piperidin-3-yl)propyl)piperidin-4-yl)-3-methoxybenzamide] |
| ++ (++<0.6) | COc1cc(C(=O)N2CCC(CCCCN3CCN(c4ccc5c(c4)C(=O)N(C4CCC(=O)NC4=O)C5=O)CC3)CC2)ccc1Nc1ncc2c(n1)N(C1CCCC1)CC(F)(F)C(=O)N2C (stereo not drawn) [Compound 100, 5-(4-(4-(1-(4-((9-cyclopentyl-7,7-difluoro-5-methyl-6-oxo-6,7,8,9-tetrahydro-5H-pyrimido[4,5-b][1,4]diazepin-2-yl)amino)-3-methoxybenzoyl)piperidin-4-yl)butyl)piperazin-1-yl)-2-(2,6-dioxopiperidin-3-yl)isoindoline-1,3-dione] |
| ++ (++<0.6) | COc1cc(C(=O)N2CCC(CN3CCN(c4cccc5c4C(=O)N(C4CCC(=O)NC4=O)C5=O)CC3)CC2)ccc1Nc1ncc2c(n1)N(C1CCCC1)CC(F)(F)C(=O)N2C (stereo not drawn) [Compound 93, 4-(4-((1-(4-((9-cyclopentyl-7,7-difluoro-5-methyl-6-oxo-6,7,8,9-tetrahydro-5H-pyrimido[4,5-b][1,4]diazepin-2-yl)amino)-3-methoxybenzoyl)piperidin-4-yl)methyl)piperazin-1-yl)-2-(2,6-dioxopiperidin-3-yl)isoindoline-1,3-dione] |
| + (+<0.7) | C=C[C@]1(F)CN(C2CCCC2)c2nc(Nc3ccc(C(=O)NC4CCN(C(=O)CCN5CCN(c6cccc7c6C(=O)N(C6CCC(=O)NC6=O)C7=O)CC5)CC4)cc3OC)ncc2N(C)C1=O (single isomer, unassigned) [Compound 109] |
| + (+<0.7) | COc1cc(C(=O)NCCOCCNc2cccc3c2C(=O)N(C2CCC(=O)NC2=O)C3=O)c(N2CCN(C)CC2)cc1Nc1ncc2c(n1)N(C1CCCC1)CC(F)(F)C(=O)N2C (stereo not drawn) [Compound 221, 4-((9-cyclopentyl-7,7-difluoro-5-methyl-6-oxo-6,7,8,9-tetrahydro-5H-pyrimido[4,5-b][1,4]diazepin-2-yl)amino)-N-(2-(2-((2-(2,6-dioxopiperidin-3-yl)-1,3-dioxoisoindolin-4-yl)amino)ethoxy)ethyl)-5-methoxy-2-(4-methylpiperazin-1-yl)benzamide] |
| ++ (++<0.6) | COc1cc(C(=O)NC2CCN(CCOc3ccc4c(c3)C(=O)N(C3CCC(=O)NC3=O)C4=O)CC2)c(F)cc1Nc1ncc2c(n1)N(C1CCCC1)CC(F)(F)C(=O)N2C (stereo not drawn) [Compound 3, 4-((9-cyclopentyl-7,7-difluoro-5-methyl-6-oxo-6,7,8,9-tetrahydro-5H-pyrimido[4,5-b][1,4]diazepin-2-yl)amino)-N-(1-(2-((2-(2,6-dioxopiperidin-3-yl)-1,3-dioxoisoindolin-5-yl)oxy)ethyl)piperidin-4-yl)-2-fluoro-5-methoxybenzamide] |
| + (+<0.7) | COc1cc(C(=O)N2CCN(CCCCNc3cccc4c3C(=O)N(C3CCC(=O)NC3=O)C4=O)CC2)c(F)cc1Nc1ncc2c(n1)N(C1CCCC1)CC(F)(F)C(=O)N2C (stereo not drawn) [Compound 184, 4-((4-(4-(4-((9-cyclopentyl-7,7-difluoro-5-methyl-6-oxo-6,7,8,9-tetrahydro-5H-pyrimido[4,5-b][1,4]diazepin-2-yl)amino)-2-fluoro-5-methoxybenzoyl)piperazin-1-yl)butyl)amino)-2-(2,6-dioxopiperidin-3-yl)isoindoline-1,3-dione] |

— US20250114460A1, “NOVEL PLK1 DEGRADATION INDUCING COMPOUND” (UPPTHERA, INC., priority 2021, published 2025)
